From patent EP4813381A1, “PHARMACEUTICAL USE OF GUAIANE SESQUITERPENE DERIVATIVE” (Nanjing University Of Chinese Medicine, priority 2023, dated 2025)
Converted amounts (≈) assume the structure as drawn.

How the values were obtained:
lupus nephritis = experiment: Lupus nephritis MRL/lpr mice: urinary protein, Scr, BUN, urinary Kim-1 and β-MG; assay type: in vivo; parameters: Scr / BUN / Kim-1 / β-MG: unit not given here; conditions: oral 30 mg/kg, 8 weeks
Description: RT Supermix for qPCR, Nanjing Vazyme Biotech Co., Ltd.; Urea Colorimetric Test Kit, Creatinine Colorimetric Test Kit, Nanjing Jiancheng Biotechnology Co., Ltd.; Urinary Kim-1 and β-MG Content ELISA Kits, Abcam. • Experimental animals: MRL/MpJ and MRL/lpr mice, female, 10 weeks old, purchased from GemPharmatech LLC. Production license number: SCXK(Su)2023-0009. […] They were acclimated for 7 days before use in experiments. […] Oral administration was performed continuously for 8 weeks. […] Aspirate the serum, aliquot it, and store at -70 °C for future use. After blood collection, euthanize mice by cervical dislocation. Open the abdominal cavity, remove kidneys, and dissect out perirenal fat and capsules. […] Store remaining tissues at -70 °C for future use. Serum Creatinine (Scr) and Blood Urea Nitrogen (BUN) Assay: […] Samples were added sequentially strictly according to the kit instructions, incubated at 37 °C, and measured for absorbance values using an enzyme-linked immunosorbent assay (ELISA) reader. The concentration levels of each indicator were calculated based on the standard curve.

[1] = system: inflammatory factors (TNF, IL-6, IL-1); experiment: Lupus nephritis MRL/lpr mice: Q-PCR of renal inflammatory factors; assay type: in vivo; conditions: kidney mRNA, oral 30 mg/kg, 8 weeks
Description: Production license number: SCXK(Su)2023-0009. […] They were acclimated for 7 days before use in experiments.
Oral administration was performed continuously for 8 weeks.
Allow blood to stand at room temperature for 2 hours, then centrifuge at 3000 rpm for 20 minutes. Aspirate the serum, aliquot it, and store at -70 °C for future use. After blood collection, euthanize mice by cervical dislocation. Open the abdominal cavity, remove kidneys, and dissect out perirenal fat and capsules. […] Store remaining tissues at -70 °C for future use.
Additional primer information is as follows: Table 19. Q-PCR Primer Information

[2] = system: CCl4-induced liver injury; experiment: CCl4 acute liver injury model in mice: serum ALT and AST; assay type: in vivo, C57BL/6 mice; conditions: 200 mg/kg (method: U/L)
From the text: The drug of the present invention, prepared according to Example 2; Silybin, Shanghai Yuanye Biotechnology Co., Ltd.; Olive oil, Beijing […] Olive Oil Development Center; Analytical grade carbon tetrachloride (CCl4), Shantou Xilong Chemical Factory; Sodium carboxymethyl cellulose (CMC-Na), Guangdong Shantou Xilong Chemical Factory; RNA Isolater Total RNA Extraction Reagent, […] RT Supermix for qPCR, Nanjing Vazyme Biotech Co., Ltd.; AceQ qPCR SYBR Green Master Mix, Shanghai Yeasen Biotechnology Co., Ltd.; Aspartate Transaminase (AST/GOT) Colorimetric Test Kit, Alanine Transaminase (ALT/GPT) Colorimetric Test Kit, Wuhan Elabscience Biotechnology Co., Ltd. • Experimental animals: […] SCXK(Su)2019-002. […] They were acclimated for 7 days before use in experiments. • Experimental Methods: Establishment of Acute Liver Injury Model in Mice and Group-Specific Drug Administration • Mice were randomly assigned to groups. […] One hour after the final drug administration, blood was collected from the retinal venous plexus. […] Serum was aspirated, aliquoted, and stored at -70 °C for future use. After blood collection, euthanize mice by cervical dislocation. Perform laparotomy to remove the liver. Rinse twice with pre-chilled PBS. Excise the left hepatic lobe tissue. […] Store remaining tissue at -70 °C for future use. • Serum AST and ALT Assay: Use 10 μL of each sample for testing. Determine mouse serum AST and ALT levels according to the operating manual. Measure absorbance at 510 nm using an enzyme-linked immunosorbent assay (ELISA) reader. Calculate sample concentration (U/L) based on the standard curve. Data Statistics: All data are expressed as means ± standard error of the mean (S.E.M.). Differences were analyzed for significance using analysis of variance (ANOVA). For groups showing significant differences in ANOVA, one-way ANOVA followed by Dunnett's test was performed to compare intergroup differences.

[3] = system: fibrosis-related factors (Acta2, Col1a1, Tgfb1); experiment: CCl4 acute liver injury model in mice: Q-PCR of fibrosis-related factors in liver; assay type: in vivo, C57BL/6 mice; conditions: liver mRNA, 200 mg/kg
Description: They were acclimated for 7 days before use in experiments. • Experimental Methods: Establishment of Acute Liver Injury Model in Mice and Group-Specific Drug Administration • Mice were randomly assigned to groups. One group was arbitrarily designated as the normal group, while the remaining groups served as model group, Compound 1 group, Hydrochloride 20 group, Fumarate 21 group, and Silibinin group, with 6 mice per group. Except for the normal group receiving 10 mL olive oil/kg via injection, all other mice received 0.5 mL CCl4 + 9.5 mL olive oil/kg body weight via intraperitoneal injection, maintaining a CCl4 to olive oil ratio of 1:19. Starting from day 1 of modeling, Compound 1, Hydrochloride 20, and Fumarate 21 were administered orally for 3 consecutive days. […] The blood was allowed to stand at room temperature for 2 hours, then centrifuged at 3000 rpm for 20 minutes. Serum was aspirated, aliquoted, and stored at -70 °C for future use. After blood collection, euthanize mice by cervical dislocation. Perform laparotomy to remove the liver. Rinse twice with pre-chilled PBS. Excise the left hepatic lobe tissue. […] Store remaining tissue at -70 °C for future use. • Serum AST and ALT Assay: Use 10 µL of each sample for testing. Determine mouse serum AST and ALT levels according to the operating manual. Measure absorbance at 510 nm using an enzyme-linked immunosorbent assay (ELISA) reader. Calculate sample concentration (U/L) based on the standard curve.
Q-PCR Analysis: Tissue total RNA extraction, cDNA synthesis, and PCR amplification methods are identical to Example 4. Additional primer information is as follows:
Data Statistics: All data are expressed as means ± standard error of the mean (S.E.M.). Differences were analyzed for significance using analysis of variance (ANOVA). For groups showing significant differences in ANOVA, one-way ANOVA followed by Dunnett's test was performed to compare intergroup differences.

MDSCs = experiment: Inhibition of MDSC chemotaxis (Transwell, Hepa1-6 tumor-conditioned medium); assay type: cell-based, mice; conditions: 12 h treatment, 24 h Transwell
Description: Hepa1-6 mouse hepatocellular carcinoma cells were uniformly seeded into 6-well plates. After cells reached confluence, supernatant was aspirated, and 1-1.5 mL fresh medium was added to each well. Following 24 h culture, supernatant was collected, centrifuged at 1600 rpm for 5 min, aspirated, and filtered through a 0.22 µm membrane to obtain tumor-conditioned medium for subsequent use. Euthanize mice by cervical dislocation and immerse in 75% ethanol solution for 5 min. Under sterile conditions, remove the tibia, cut both ends of the bone, and aspirate the bone marrow into a 1 mL syringe. Repeat flushing into a 15 mL centrifuge tube. Centrifuge at 1600 rpm for 5 min to collect bone marrow cells. Wash twice with 1×PBS. Resuspend cells in complete RPMI 1640 medium containing cytokines GM-CSF (10 ng/mL) and IL-4 (10 ng/mL) to stimulate differentiation into MDSCs. Count cells, adjust density to 1×10^6 cells/mL, and uniformly seed into 24-well plates at 300 µL per well. […] Centrifuge at 1600 rpm for 5 min, remove supernatant, resuspend cells in 300 µL fresh medium, and place into Transwell chambers. Add 600 µL normal medium (control group) or tumor-conditioned medium (model group) to the lower chamber. Co-culture for 24 h.

CCR2 mRNA = CCR2 mRNA level in MDSCs (PCR); assay type: cell-based, mice; conditions: CCR2 mRNA levels in MDSCs, 2 h
Description: Mice were euthanized by cervical dislocation and immersed in 75% ethanol solution for 5 min. Under sterile conditions, the tibia was removed, both ends of the bone were cut, and bone marrow was repeatedly flushed into a 15 mL centrifuge tube using a 1 mL syringe filled with culture medium. Centrifuge at 1600 rpm for 5 min to collect bone marrow cells. Wash twice with 1×PBS, then resuspend in RPMI 1640 complete medium containing GM-CSF (10 ng/mL) + IL-4 (10 ng/mL) and transfer to a cell culture dish to stimulate differentiation of bone marrow cells into MDSCs. Count cells and adjust density to 1 × 10^6 cells/mL in complete medium. Seed cells uniformly into 6-well plates at 2 mL per well. […] After incubation, collect cells into centrifuge tubes, centrifuge at 1600 rpm for 5 min, wash once with 1×PBS, and add 500 µL RNA extraction reagent to each tube. After centrifugation to obtain the pellet, add 20 µL DEPC-treated water to each tube to dissolve the pellet. Determine RNA concentration and reverse transcribe to cDNA. Add the cDNA, primers, and reverse transcriptase to a 96-well plate. Centrifuge at 4000 rpm for 5 min, then place in a PCR instrument for detection.

physchem = conditions: water, 37 °C, thermodynamic from solid
4T1 cells = assay type: in vivo, BALB/c mice; conditions: 4T1, oral 40 µmol/kg/day, 3 weeks
Description: 4T1 cells were cultured and expanded in vitro. […] A 100 µL aliquot of this suspension was injected subcutaneously into the left forelimb axilla of female BALB/c mice. […] Daily oral administration was performed for 3 weeks. During the treatment period, mouse body weight and tumor diameter were measured daily. At the end of the experiment, mice were euthanized by cervical dislocation, and tumors were removed for weighing. Tumor volume (TV) was calculated using the formula: TV = 1/2 × a × b^2, where a represents the longest diameter of the tumor and b represents the shortest diameter.

[4] = Conversion rate of salt-form prodrugs to parent compound in HEPES buffer solution; assay type: physicochemical; conditions: conversion to Compound 83, HEPES buffer pH 7.4, 37 °C
Method in brief: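 Salt-form prodrug dissolved in water was mixed 1:1 with HEPES buffer pH 7.4 (or mouse serum) and incubated at 37°C. Aliquots were quenched with methanol and centrifuged, and supernatants taken at 1, 2, 4, 8 and 12 h were analysed by HPLC. Conversion was followed by peak areas.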

[5] = Conversion rate of salt-form prodrugs to parent compound in mouse plasma; assay type: in vitro ADME; conditions: conversion to Compound 83, mouse plasma, 37 °C

For `CC(C)(O)c1coc(S(=O)(=O)NC(=O)Nc2c3c(cc4c2CCC4)CCC3)c1` [MCC950, reference compound], the “24-hour urine protein level” value (lupus nephritis) was 0.89±0.11, the BUN (lupus nephritis; serum) was 12.08±2.01 and the Scr (lupus nephritis; serum) was 22.18±3.41. It also gave a Kim-1 (lupus nephritis; urine) of 0.53±0.06, a β-MG (lupus nephritis; urine) of 15.41±0.39 and an Il1 [1] of 5.43±0.71. For the same molecule, the Il6 [1] was 9.52±0.84 and the Tnf [1] was 4.33±0.52.

Molecule `COc1cc(C2Oc3cc([C@H]4Oc5cc(O)cc(O)c5C(=O)[C@@H]4O)ccc3OC2CO)ccc1O` (stereo partly shown) [Silybin, reference compound] has an ALT [2] of 121.58±15.45, an AST [2] of 301.45±38.44 and an Acta2 [3] of 2.91±0.48. The Col1a1 [3] was 1.84±0.17 and the Tgfb1 [3] was 1.11±0.08.

For `C=C1C(=O)O[C@H]2[C@H]1CCC(C)=C1CC[C@@](C)(OC(=O)NCCN3CCOCC3)[C@@H]12` [compound 78], the “Suppression Rate (%)” value (MDSCs; 1 µM) was 29.0%, the “Suppression Rate (%)” value (MDSCs; 10 µM) was 67.1% and the “CCR2 mRNA suppression rate in MDSCs (%)” value (CCR2 mRNA; 1 µM) was 23.0%. The “CCR2 mRNA suppression rate in MDSCs (%)” value (CCR2 mRNA; 10 µM) was 52.7%.

For `C=C1C(=O)O[C@H]2[C@H]1CCC(C)=C1CC[C@@](C)(OC(=O)N3CCCCC3)[C@@H]12` [compound 83], the “Suppression Rate (%)” value (MDSCs; 1 µM) was 29.4%, the “Suppression Rate (%)” value (MDSCs; 10 µM) was 75.9% and the “CCR2 mRNA suppression rate in MDSCs (%)” value (CCR2 mRNA; 1 µM) was 17.0%. The “CCR2 mRNA suppression rate in MDSCs (%)” value (CCR2 mRNA; 10 µM) was 70.0% and the solubility (physchem) was 152 µg/mL (≈ 423 µM).

In the case of `C=C1C(=O)O[C@H]2[C@H]1CCC(C)=C1CC[C@@](C)(OC(=O)NCCN3CCOCC3)[C@@H]12` [compound 99], the antitumor effects (4T1 cells) is reported as “no significant antitumor effects”.

`CC1=C2CC[C@@](C)(OC(=O)N3CCCCC3)[C@@H]2[C@H]2OC(=O)[C@@H](CN(C)C)[C@@H]2CC1` [compound 102] gave a Release rate ([4]; 1 h) of 6.8%, a Release rate ([4]; 2 h) of 14.6% and a Release rate ([4]; 4 h) of 24.8%. It also gave a Release rate ([4]; 8 h) of 43.0%, a Release rate ([4]; 12 h) of 51.8% and a Release rate ([5]; 1 h) of 6.6%. The Release rate ([5]; 2 h) was 14.0%, the Release rate ([5]; 4 h) was 26.0% and the Release rate ([5]; 8 h) was 42.4%. The Release rate ([5]; 12 h) was 47.8% and the antitumor effects (4T1 cells) was “no significant antitumor effects”.
